Measured values from US5902812A, “Pharmaceutical piperazine compounds” (Xenova Limited, priority 1994, dated 1999).
pIC50: −log10 of the molar value. Structures can show the parent of a compound that is named as a salt. Where two headings read alike, the source gives them in different places. Each block holds one compound with its values, some of them ahead of it.

Molecular target: PAI-1 (Homo sapiens, UniProt P05121)
Assay: biochemical
[1] = 6.25 μM, read-out: Degree of inhibition in PAI chromogenic substrate assay
[2] = 12.5 μM, read-out: Degree of inhibition in PAI chromogenic substrate assay
[3] = 25 μM, read-out: Degree of inhibition in PAI chromogenic substrate assay
[4] = 50 μM, read-out: Degree of inhibition in PAI chromogenic substrate assay
[5] = 100 μM, read-out: Degree of inhibition in PAI chromogenic substrate assay
[6] = PAI chromogenic substrate assay, read-out: IC50
[7] = 20 μM (third part of Table 1), read-out: Degree of inhibition in PAI chromogenic substrate assay
[8] = 100 μM (third part of Table 1), read-out: Degree of inhibition in PAI chromogenic substrate assay

Sequence of PAI-1 (P05121 24-402): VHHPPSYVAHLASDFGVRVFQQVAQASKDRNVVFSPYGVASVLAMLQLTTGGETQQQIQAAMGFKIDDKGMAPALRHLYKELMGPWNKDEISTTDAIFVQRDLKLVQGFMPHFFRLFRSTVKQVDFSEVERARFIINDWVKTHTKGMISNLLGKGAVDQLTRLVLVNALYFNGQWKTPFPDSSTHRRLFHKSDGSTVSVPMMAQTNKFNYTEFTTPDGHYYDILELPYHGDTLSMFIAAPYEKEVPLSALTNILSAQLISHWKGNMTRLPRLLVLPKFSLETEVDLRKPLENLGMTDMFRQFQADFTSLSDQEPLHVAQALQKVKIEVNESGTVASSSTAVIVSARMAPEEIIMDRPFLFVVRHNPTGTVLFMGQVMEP
Description: In this assay, a compound is incubated with PAI-1 prior to addition to the tPA assay system. Inhibition of PAI-1 results in the production of plasmin from plasminogen. In turn, plasmin cleaves the chromogenic substrate S2251 (Kabi Vitrum) producing pNA (p-nitroaniline) which is detected spectrophotometrically at 405 nm (K. Nilsson et al, Fibrinolysis (1987) 1, 163-168).
Compounds of formula (A) were tested in a PAI chromogenic substrate assay. In the assay (K.Nilsson, Fibrinolysis (1987) 1, 163-168) each compound was incubated with PAI-1 prior to addition to the tPA assay system. […] In turn, the plasmin cleaved the chromogenic substrate S2251 (Kabi-Vitrum) producing pNA (p-nitroaniline) which was detected spectrophotometrically at 405 nm.

Structure (SMILES): CN(C)CCOc1ccc(/C=c2\[nH]c(=O)/c(=C/c3ccc(F)cc3F)[nH]c2=O)cc1 [Compound 1977, (3Z,6Z)-3-(2,4-Difluorobenzylidene)-6-(4-(2-dimethylaminoethoxy)benzylidene)-2,5-piperazinedione]
inhibition at 6.25 µM [1]: 0% | inhibition at 12.5 µM [2]: 20% | inhibition at 25 µM [3]: 47% | inhibition at 50 µM [4]: 47% | inhibition at 100 µM [5]: 54%

Structure (SMILES): CN(C)CCCOc1ccc(/C=c2\[nH]c(=O)/c(=C/c3cc([N+](=O)[O-])cc([N+](=O)[O-])c3)[nH]c2=O)cc1 [Compound 5378, (3Z,6Z)-6-(4-(3-Dimethylaminopropoxy)benzylidene)-3-(3,5-dinitrobenzylidene)-2,5-piperazinedione]
pIC50 (IC50, PAI chromogenic substrate assay): 4.70 | inhibition at 20 µM (read-out: Degree of inhibition in PAI chromogenic substrate assay): 50%

Structure (SMILES): CN(C)CCOc1ccc(/C=c2\[nH]c(=O)/c(=C/c3ccccc3)[nH]c2=O)cc1 [Compound 1924, (3Z,6Z)-3-Benzylidene-6-(4-(2-dimethylaminoethoxy)benzylidene)-2,5-piperazinedione]
Degree of inhibition in PAI chromogenic substrate assay (6.25 μM): 9% | Degree of inhibition in PAI chromogenic substrate assay (12.5 μM): 7% | Degree of inhibition in PAI chromogenic substrate assay (25 μM): 18% | Degree of inhibition in PAI chromogenic substrate assay (50 μM): 38% | Degree of inhibition in PAI chromogenic substrate assay (100 μM): 64%

Structure (SMILES): CN(C)CCCOc1ccc(/C=c2\[nH]c(=O)/c(=C/c3ccccc3)[nH]c2=O)cc1 [Compound 1852, (3Z,6Z)-6-Benzylidene-3-(4-(3-dimethylaminopropoxy)benzylidene)-2,5-piperazinedione]
inhibition at 6.25 µM [1]: 4% | inhibition at 12.5 µM [2]: 67% | inhibition at 25 µM [3]: 74% | inhibition at 50 µM [4]: 71% | inhibition at 100 µM [5]: 72%

Structure (SMILES): CN(C)CCCOc1ccc(/C=c2\[nH]c(=O)/c(=C/c3ccc([N+](=O)[O-])cc3)[nH]c2=O)cc1 [Compound 5228, (3Z,6Z)-3-(4-(3-dimethylaminopropoxy)benzylidene)-6-(4-nitrobenzylidene)-2,5-piperazinedione]
pIC50 [6]: 5.96

Structure (SMILES): CN(C)CCOc1ccc(/C=c2\[nH]c(=O)/c(=C/c3ccccc3)[nH]c2=O)c(OCCN(C)C)c1 [Compound 1969]
inhibition at 6.25 µM [1]: 2% | inhibition at 12.5 µM [2]: 0% | Degree of inhibition in PAI chromogenic substrate assay (25 μM): 6% | Degree of inhibition in PAI chromogenic substrate assay (50 μM): 20% | Degree of inhibition in PAI chromogenic substrate assay (100 μM): 52%

Structure (SMILES): CN(C)CCOc1ccc(/C=c2\[nH]c(=O)/c(=C/c3ccccc3)[nH]c2=O)cc1 [Compound 1961, (3Z,6Z)-3-Benzylidene-6-(4-(2-dimethylaminoethoxy)benzylidene)-2,5-piperazinedione]
inhibition at 3.75 µM (3.75 μM, read-out: Degree of inhibition in PAI chromogenic substrate assay): 1% | inhibition at 7.5 µM (7.5 μM, read-out: Degree of inhibition in PAI chromogenic substrate assay): 11% | inhibition at 15 µM (15 μM, read-out: Degree of inhibition in PAI chromogenic substrate assay): 41% | inhibition at 30 µM (30 μM, read-out: Degree of inhibition in PAI chromogenic substrate assay): 49% | inhibition at 60 µM (60 μM, read-out: Degree of inhibition in PAI chromogenic substrate assay): 48%

Structure (SMILES): CN(C)CCOc1ccc(/C=c2\[nH]c(=O)/c(=C/c3ccccc3)[nH]c2=O)cc1 [Compound 1956]
Degree of inhibition in PAI chromogenic substrate assay (6.25 μM): 31% | Degree of inhibition in PAI chromogenic substrate assay (12.5 μM): 65% | Degree of inhibition in PAI chromogenic substrate assay (25 μM): 69% | Degree of inhibition in PAI chromogenic substrate assay (50 μM): 69% | Degree of inhibition in PAI chromogenic substrate assay (100 μM): 61%

Structure (SMILES): CCN(CC)CCOc1ccc(/C=c2\[nH]c(=O)/c(=C/c3ccccc3)[nH]c2=O)cc1 [Compound 5065.HCl]
inhibition at 20 µM [7]: 12% | inhibition at 50 µM (50 μM (third part of Table 1), read-out: Degree of inhibition in PAI chromogenic substrate assay): 80% | inhibition at 100 µM [8]: 85%

Structure (SMILES): CC(C)(C)CC(=O)Oc1ccc(/C=c2\[nH]c(=O)/c(=C/c3ccccc3)[nH]c2=O)cc1 [Compound 1889, (3Z,6Z)-6-Benzylidene-3-(4-(3,3-dimethylbutanoyloxy)benzylidene)-2,5-piperazinedione]
inhibition at 6.25 µM [1]: 0% | inhibition at 12.5 µM [2]: 3% | inhibition at 25 µM [3]: 15% | inhibition at 50 µM [4]: 38% | inhibition at 100 µM [5]: 49%

Structure (SMILES): COc1ccc(/C=c2\[nH]c(=O)/c(=C/c3ccc(OC(=O)CC(C)(C)C)cc3)[nH]c2=O)cc1 [Compound 1885, (3Z,6Z)-3-(4-(3,3-dimethylbutanoyloxy)benzylidene)-6-(4-methoxybenzylidene)-2,5-piperazinedione]
inhibition at 6.25 µM [1]: 0% | inhibition at 12.5 µM [2]: 0% | inhibition at 25 µM [3]: 2% | inhibition at 50 µM [4]: 31% | inhibition at 100 µM [5]: 54%

Structure (SMILES): CN(C)CCOc1ccc(/C=c2\[nH]c(=O)/c(=C/c3ccccc3)[nH]c2=O)cc1 [Compound 1908, (3Z,6Z)-3-Benzylidene-6-(4-(2-dimethylaminoethoxy)benzylidene)-2,5-piperazinedione]
Degree of inhibition in PAI chromogenic substrate assay (6.25 μM): 12% | Degree of inhibition in PAI chromogenic substrate assay (12.5 μM): 29% | Degree of inhibition in PAI chromogenic substrate assay (25 μM): 66% | Degree of inhibition in PAI chromogenic substrate assay (50 μM): 69% | Degree of inhibition in PAI chromogenic substrate assay (100 μM): 74%

Structure (SMILES): CN(C)CCOc1ccc(/C=c2\[nH]c(=O)/c(=C/c3c(Cl)cccc3Cl)[nH]c2=O)cc1 [Compound 1952]
inhibition at 6.25 µM [1]: 0% | Degree of inhibition in PAI chromogenic substrate assay (12.5 μM): 1% | Degree of inhibition in PAI chromogenic substrate assay (25 μM): 19% | inhibition at 50 µM [4]: 37% | inhibition at 100 µM [5]: 63%

Structure (SMILES): COc1ccc(/C=c2\[nH]c(=O)/c(=C/c3ccc(OCCN(C)C)cc3)[nH]c2=O)cc1 [Compound 1911]
inhibition at 6.25 µM [1]: 13% | inhibition at 12.5 µM [2]: 20% | inhibition at 25 µM [3]: 15% | inhibition at 50 µM [4]: 23% | inhibition at 100 µM [5]: 38%

Next, values leading:

inhibition at 20 µM [7]: 15%
Structure (SMILES): CN(C)CCCOc1ccc(/C=c2\[nH]c(=O)/c(=C/c3ccc(C(=O)NCCCc4ccccc4)cc3)[nH]c2=O)cc1 [Compound 5346, N-(3-Phenylpropyl)-4-((3Z,6Z)-6-(4-(3-Dimethylaminopropoxy)benzylidene)-2,5-dioxo-3-piperazinylidene)methylbenzamide]

inhibition at 20 µM [7]: 65% | inhibition at 100 µM [8]: 68% | pIC50 [6]: 5.15
Structure (SMILES): CN(C)CCCOc1ccc(/C=c2\[nH]c(=O)/c(=C/c3ccc(C(F)(F)F)cc3)[nH]c2=O)cc1 [Compound 5239, (3Z,6Z)-3-(4-(3-Dimethylaminopropoxy)benzylidene)-6-(4-trifluoromethylbenzylidene)-2,5-piperazinedione]

Degree of inhibition in PAI chromogenic substrate assay (20 μM (third part of Table 1), 20 µM): 34%
Structure (SMILES): CN(C)CCCOc1ccc(/C=c2\[nH]c(=O)/c(=C/c3ccc(C(N)=O)cc3)[nH]c2=O)cc1 [Compound 5246, 4-((3Z,6Z)-6-(4-(3-Dimethylaminopropoxy)benzylidene)-2,5-dioxo-3-piperazinylidene)methylbenzamide]

inhibition at 100 µM [8]: 10%
Structure (SMILES): CC(=O)Nc1ccccc1/C=c1\[nH]c(=O)/c(=C/c2ccc(OCCCN(C)C)cc2)[nH]c1=O [Compound 5248]

inhibition at 100 µM [8]: 10%
Structure (SMILES): CN(C)CCCOc1ccc(/C=c2\[nH]c(=O)/c(=C/c3cccc(C#N)c3)[nH]c2=O)cc1 [Compound 5232, (3Z,6Z)-3-(3-Cyanobenzylidene)-6-(4-(3-dimethylaminopropoxy)benzylidene)-2,5-piperazinedione]

inhibition at 20 µM [7]: 47% | inhibition at 100 µM [8]: 50% | pIC50 [6]: 5.60
Structure (SMILES): CN(C)CCCOc1ccc(/C=c2\[nH]c(=O)/c(=C/c3ccc(Cl)cc3)[nH]c2=O)cc1 [Compound 5233]

inhibition at 20 µM [7]: 54% | pIC50 [6]: 5.38
Structure (SMILES): CN(C)CCCOc1ccc(/C=c2\[nH]c(=O)/c(=C/c3ccc(Cl)c([N+](=O)[O-])c3)[nH]c2=O)cc1 [Compound 5398, (3Z,6Z)-3-(4-Chloro-3-nitrobenzylidene)-6-(4-(3-dimethylaminopropoxy)benzylidene)-2,5-piperazinedione]

pIC50 [6]: 4.82
Structure (SMILES): CN(C)CCCOc1ccc(/C=c2\[nH]c(=O)/c(=C/c3cccc(OC(F)(F)F)c3)[nH]c2=O)cc1 [Compound 5374, (3Z,6Z)-6-(4-(3-Dimethylaminopropoxy)benzylidene)-3-(3-trifluoromethoxybenzylidene)-2,5-piperazinedione]

inhibition at 20 µM [7]: 39%
Structure (SMILES): CN(C)CCCOc1ccc(/C=c2\[nH]c(=O)/c(=C/c3ccc(C(=O)NCCCCc4ccccc4)cc3)[nH]c2=O)cc1 [Compound 5347, N-(4-Phenylbutyl)-4-((3Z,6Z)-6-(4-(3-Dimethylaminopropoxy)benzylidene)-2,5-dioxo-3-piperazinylidene)methylbenzamide]

pIC50 [6]: 5.43
Structure (SMILES): CN(C)CCCOc1ccc(/C=c2\[nH]c(=O)/c(=C/c3ccc4c(c3)OCO4)[nH]c2=O)cc1 [Compound 5229, (3Z,6Z)-6-(4-(3-Dimethylaminopropoxy)benzylidene)-3-(3,4-methylenedioxybenzylidene)-2,5-piperazinedione]

pIC50 [6]: 5.48
Structure (SMILES): CN(C)CCCOc1ccc(/C=c2\[nH]c(=O)/c(=C/c3ccc(F)cc3)[nH]c2=O)cc1 [Compound 5365.HCl, (3Z,6Z)-3-(4-(3-Dimethylaminopropoxy)benzylidene)-6-(4-fluorobenzylidene)-2,5-piperazinedione]

inhibition at 20 µM [7]: 3% | inhibition at 100 µM [8]: 36%
Structure (SMILES): CN(C)CCCOc1ccc(/C=c2\[nH]c(=O)/c(=C/c3ccc(C(C)(C)C)cc3)[nH]c2=O)cc1 [Compound 5238, (3Z,6Z)-3-(4-(3-Dimethylaminopropoxy)benzylidene)-6-(4-tert-butylbenzylidene)-2,5-piperazinedione]

inhibition at 20 µM [7]: 10% | inhibition at 100 µM [8]: 65% | pIC50 [6]: 4.00
Structure (SMILES): CC(=O)Nc1cccc(/C=c2\[nH]c(=O)/c(=C/c3ccc(OCCCN(C)C)cc3)[nH]c2=O)c1 [Compound 5256, (3Z,6Z)-3-(3-Acetamidobenzylidene)-6-(4-(3-dimethylaminopropoxy)benzylidene)-2,5-piperazinedione]

inhibition at 20 µM [7]: 40%
Structure (SMILES): CN(C)CCCOc1ccc(/C=c2\[nH]c(=O)/c(=C/c3ccc(C(=O)NCc4ccccc4)cc3)[nH]c2=O)cc1 [Compound 5344, N-Benzyl-4-((3Z,6Z)-6-(4-(3-Dimethylaminopropoxy)benzylidene)-2,5-dioxo-3-piperazinylidene)methylbenzamide]
